Values joined by “and” are separate entries in the source; they are usually repeats but may differ in a detail not shown here. Equal values may be shown once.
Columns and labels:
[1] = MTS test of effects of the compound on cell survival; assay type: cell-based; details: human, 293T cells
Experimental: Then, 20 μL freshly prepared mixture of MTS/PMS was added to each well and after 4 h incubation in the incubator at 37° C. with 5% CO2, the color was developed. The light absorption (OD) of each well at wavelengths 490 nm and 650 nm (background) was detected on an enzyme linked immuno analyzer, and the survival rate of cells was calculated.

[2] = MTT test of cytotoxicity on HepG2.2.15 cells; assay type: cell-based; details: human, read-out: CC50 (μM) (HepG2. 2. 15)
Experimental: (§1) A tube of frozen HepG2.2.15 cells taken from a liquid nitrogen tank was quickly placed into a water bath at 42° C. and shaken to thaw. DMEM complete medium (fetal bovine serum 10%, G418 380 μg/mL, Penicillin 100 U/ml, Streptomycin 100 U/ml) was used for cell culturing at conditions of 37° C. and 5% CO2. The number of cell passage in normal growing cells was once per 2-3 days.
Cytotoxicity of the compound on HepG2.2.15 cells was tested with the MTT colorimetric assay established by Mosmann. After continuous incubation for 72 h, 10 μL MTT was added to each well. Four hours later, the supernatant was discarded and 200 μL DMSO was added to each well. The OD value in each well was read using a microplate reader (measurement wavelength 490 nm, reference wavelength 630 nm). The result was recorded and the percentage inhibition of HepG2.2.15 cells by each compound was calculated:
The half toxic concentration (TC50) of the medicament on cells was calculated according to the percentage inhibition of the cell by the medicament.

VSVG/HIV-luc (NL4-3) = experiment: microbe, parasite or virus in culture; assay type: cell-based, HIV-1; details: Human immunodeficiency virus 1, NL43, HEK-293T, 48 h, read-out: EC50 (μM) VSVG/HIV-luc (NL4-3)
HBeAg = experiment: In vitro inhibition of HBV: HBeAg in HepG2.2.15 cells by ELISA; assay type: cell-based; details: Hepatitis B virus, HepG2.2.15, read-out: IC50 (μM) (HBeAg)
Experimental: as §1
(§2) The effect of a compound on HBV surface antigen s and antigen e in the cell culture was detected using a screening concentration lower than the half toxic concentration of the compound. HepG2.2.15 cells in logarithmic growth phase were selected and digested with trypsin into single cell suspension, and were seeded to a 24-well plate at a concentration of 2×10^4/mL, 1 mL per well. Media of different medicament concentrations were added, three wells for each concentration, and cells added with complete medium were set as normal control. Cell supernatants and cells at day 3, day 6 and day 9 were collected and kept under −20° C. The intracellular and extracellular expressions of e antigen and surface antigen at day 3, day 6 and day 9 were determined by ELISA.
(§3) 2.4 Effect of the Compound on HBeAg and HBsAg in HepG2.2.15 Cell Supernatant Detected by ELISA
(§4) The instructions of the kit were followed;
(§5) Measurement: OD value of each well was read from microplate reader using dual wavelength 450/630 nm.
(§6) Result determination: The Cutoff value was first calculated according to equation: COV=average OD of negative control×2.1. Then, if a sample had OD≧COV, the result was determined as positive, or if a sample had OD≦COV, the result was determined as negative.

HBsAg = experiment: In vitro inhibition of HBV: HBsAg in HepG2.2.15 cells by ELISA; assay type: cell-based; details: Hepatitis B virus, HepG2.2.15, read-out: IC50 (μM) (HBsAg)
Experimental: as §1, §2, §3, §4, §5, §6

[3] = system: human lymphoma Raji cells; experiment: Inhibition of cell growth by MTT reduction; assay type: cell-based; details: read-out: Inhibitory activity, IC50
Experimental: Cell culturing: Raji cells in RPMI1640 culture solution containing 10% fetal calf serum were incubated in an incubator at 37° C. with 5% CO2 for 2-3 days. Cells in logarithmic growth phase were used for the experiment.
Cells in logarithmic growth phase were taken and after the cell density was adjusted to 5×10^4 cells/mL, they were seeded to three 96-well plates separately, 100 μL per well. The culture solution was replaced after 24 h cell culturing. […] The blank group (for zeroing) was only added with RPMI1640 culture solution containing 10% fetal calf serum and no cell was added. The control group was added with an equal volume of RPMI1640 culture solution containing 10% fetal calf serum. Each group had 5 replicates. After cells were incubated for 24 h, 48 h and 72 h separately, 20 μL MTT solution (5 mg/mL) was added to each well followed by a 4 h incubation. The supernatant was removed by sucking it out and discarded. 150 μL DMSO was added per well, vortexed about 5 min to mix evenly. After the crystal was completely dissolved, the absorption (A) value at 570 nm of each well was tested within 20 min on enzyme-linked immuno analyzer. The experiment was repeated 3 times and the average was taken to calculate the inhibition rate of cell growth by the following equation. Inhibition rate of cell growth=(1−average A value of experimental group/average A value of control group)×100%

HCV-RNA = experiment: In vitro anti-HCV activity, quantitative determination of HCV-RNA; assay type: cell-based, hepatitis C virus (HCV); details: for levels of HCV-RNA: control 0 μg/mL: Exp 1 5.3 × 10^2, Exp 2 4.0 × 10^2
Experimental: HCV replication cells (Avva.5) were cultivated in Dulbecco's modified Eagle medium containing 10% fetal calf serum and 1 mg/mL G418. 293-Sip-L cells were cultivated in Dulbecco's modified Eagle medium containing 10% fetal calf serum, 250 μg/mL G418 and 150 μg/mL hygromycin B.
Cells in a Φ60 mm Petri dish were incubated in positive medium containing 100 μL HCV for 12 h, then in fresh medium free of HCV that was replaced every day. When being tested for HCV-RNA seven days after the infection, cells were trypsinized and washed with Dulbecco's modified Eagle medium twice through a centrifugation method. The upper layer from the second wash (as a control) and the washed cells were collected in pairs and used for RNA extraction and RT-PCR test. The β-actin mRNA was determined simultaneously as a control.
The quantitative determination of HCV-RNA was performed using automatic PCR enzyme-linked immunoassay (version 2.0, Roche Diagnostics, Branchburg, N.J.).
The levels of HCV-RNA were determined using automatic PCR enzyme-linked immunoassay.

| SMILES | CC50 at 44 h [1] [µM] | CC50 at 72 h [2] [µM] | EC50 (VSVG/HIV-luc (NL4-3)) [µM] | IC50 (HBeAg) [µM] | IC50 (HBsAg) [µM] | IC50 [3] [µM] | levels of HCV-RNA (HCV-RNA; 0.06 μg/mL in the culture) | levels of HCV-RNA (HCV-RNA; 0.6 μg/mL in the culture) | levels of HCV-RNA (HCV-RNA; 6 μg/mL in the culture) | inhibitory effect on HCV (HCV-RNA; concentrations 6, 0.6 and 0.06 μg/mL) |
| --- | --- | --- | --- | --- | --- | --- | --- | --- | --- | --- |
| COC(=O)CC[C@H](Nc1ccn([C@@H]2O[C@@](CO)(N=[N+]=[N-])C(O)C2F)c(=O)n1)C(=O)OC (stereo partly drawn) [Compound 7b] | ≥ 25 | > 1250 | 0.7 ± 0.1 | 6.16 | 0.02 | 28 |  |  |  |  |
| [N-]=[N+]=N[C@]1(CO)O[C@@H](n2ccc(N(CCO)CCO)nc2=O)C(F)C1O (stereo partly drawn) [Compound 5-19] | ≥ 25 | > 1250 | 0.8 ± 0.7 |  | 0.009 | 1.6 |  |  |  |  |
| CNc1ccn([C@@H]2O[C@@](CO)(N=[N+]=[N-])C(O)C2F)c(=O)n1 (stereo partly drawn) [Compound 5-28] | ≥ 25 | > 250 | 6.7 ± 4.7 | 14.3 | 6.26 |  |  |  |  |  |
| [N-]=[N+]=N[C@]1(CO)O[C@@H](n2ccc(NO)nc2=O)C(F)C1O (stereo partly drawn) [Compound 5-17] | ≥ 25 | 951 | 0.7 ± 0.2 | 0.11 | 0.07 |  |  |  |  |  |
| [N-]=[N+]=N[C@]1(CO)O[C@@H](n2ccc(NCCN)nc2=O)C(F)C1O (stereo partly drawn) [Compound 5-02] | ≥ 25 | ≥ 25 | 0.093 ± 0.067 |  | 8.05 | 45 | 4.5 × 10^2 and 4.2 × 10^2 | 0.90 × 10^2 and 0.70 × 10^2 | 1.0 × 10^2 and 0.80 × 10^2 | exhibited inhibitory effect |
| COC(=O)C(C)Nc1ccn([C@@H]2O[C@@](CO)(N=[N+]=[N-])C(O)C2F)c(=O)n1 (stereo partly drawn) [Compound 7m] | ≥ 25 | 311 | 10 ± 6.6 | 21.2 | 1.89 |  |  |  |  |  |
| COC(=O)C[C@H](Nc1ccn([C@@H]2O[C@@](CO)(N=[N+]=[N-])C(O)C2F)c(=O)n1)C(=O)OC (stereo partly drawn) [Compound 8e] | ≥ 25 | 231 | 12 ± 2.8 | 12.8 | 20.5 |  |  |  |  |  |
| [N-]=[N+]=N[C@]1(CO)O[C@@H](n2ccc(NCC(=O)O)nc2=O)C(F)C1O (stereo partly drawn) [Compound 8a] | ≥ 25 | > 250 | 5.1 ± 1.1 | 16.7 | 13.8 |  |  |  |  |  |
